Source: US20220273659A1, “HETEROCYCLIC COMPOUNDS AS KINASE INHIBITORS” (NUVATION BIO INC., priority 2019, published 2022)
Read-outs that look alike come from different tables or passages of the source.

How the values were obtained:
CDK1 (cyclin B) = biological target: T1, CDK1 (cyclin B) (Homo sapiens, UniProt P06493); assay: Z'-LYTE kinase assay; assay type: biochemical
T1 construct: purchased Invitrogen Life Technologies (assay service)
Method: The plates were shaken for 30 seconds, and incubated for 60 minutes at room temperature. […] The plates were read on fluorescence plate reader with Dual emission at 445 nm and 520 nm.
The following equations were used for Z′-LYTE™ Screening Assay Data Analysis.

FMS kinase = biological target: T2, FMS kinase (Homo sapiens, UniProt P07333); assay: LanthaScreen Eu Kinase Binding Assay (ATP, fluorescent-PolyGT substrate); assay type: biochemical
T2 construct: purchased Invitrogen (Life Technologies)
Summary of the method: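 TR-FRET read (ex 340, em 495 and 520 nm) after EDTA/Tb-labelled antibody stop; IC50 by four-parameter logistic fit of percent inhibition. Reaction: 1.25 nM FMS, 10 min compound preincubation (3-fold series), then 1 h at room temperature with 10 μM ATP and 200 nM fluorescent PolyGT.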

PI3Kδ kinase = biological target: T3, PI3Kδ kinase (Homo sapiens, UniProt O00329); assay: PI3Kδ kinase assay (ADP-Glo, Reaction Biology); assay type: biochemical
T3 construct: purchased Reaction Biology Corporation (assay service)
Summary of the method: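 Kinase in Tris-HCl 40 mM pH 7.5, MgCl2 20 mM, orthovanadate 3 mM, DTT 2 mM, 0.05% CHAPS, 1% DMSO, preincubated 10 min at room temperature with compound (about 0.5 nM–100 μM). ATP started a 30-min reaction at 30 °C. ADP-Glo luminescence converted to μM ADP via standard curve; IC50 from nonlinear regression.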

[1] = tested on: MCF-7 breast adenocarcinoma cells; assay: Cancer cell proliferation assay, single agent (cell viability); assay type: cell-based; settings: Homo sapiens, MCF7, Table 4; Rb positive; treatment 144 Hr with medium change at 72 Hr; Cell Titer-Glo or resazurin
Summary of the method: (§1)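 Viability read by resazurin or CellTiter-Glo after 24 h treatment (BT-549) or 144 h with a 72 h medium change (MCF-7, DU4475). Compounds tested at 7–9 concentrations, e.g. 1.1 nM–10 μM, added the day after seeding; IC50 by nonlinear sigmoidal regression.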

CDK2 (cyclin A) = biological target: T4, CDK2 (cyclin A) (Homo sapiens, UniProt P24941); assay: Z'-LYTE kinase assay; assay type: biochemical
T4 construct: purchased Invitrogen Life Technologies (assay service)
Summary of the method: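 FRET-based Z′-LYTE read-out using 1.22–10.3 ng CDK2/cyclin A with Ser/Thr 12 peptide (2 μM in the 2× mix) and ATP (31 μM as the 4× solution), in HEPES pH 7.5, MgCl2, EGTA and BRIJ-35, for 60 min at room temperature. After 1 h of development, the 445/520 nm emission was read, and percent inhibition was fitted to a four-parameter logistic curve for IC50.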

CDK6 = biological target: T5, CDK6 (Homo sapiens, UniProt Q00534); assay: In vitro kinase inhibition IC50, luminescence (ADP Glo), retinoblastoma substrate; assay type: biochemical; settings: read-out: CDK6/D1 IC50
T5 construct: purchased Invitrogen PR8422B
Summary of the method: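 IC50 derived by four-parameter logistic fit of percent inhibition, read as ADP-Glo luminescence. Reactions: 5 nM CDK6, 1 μM retinoblastoma, 25 μM ATP, test compound 0.1–200 nM final, 2 h at room temperature.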

CDK4 = biological target: T6, CDK4 (Homo sapiens, UniProt P11802); assay: as above; assay type: biochemical; settings: read-out: CDK4/D1 IC50
T6 construct: purchased Invitrogen PR8064A
Summary of the method: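 Inhibition of CDK4 was quantified by ADP Glo luminescence with retinoblastoma as substrate. Reactions held 5 nM kinase, 1 μM retinoblastoma and 25 μM ATP and ran 2H at room temperature. A Synergy Neo reader took signals 15 min and 45 min after detection reagent, and percent inhibition was fitted to a four-parameter logistic model in XLfit to obtain IC50.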

[2] = tested on: DU4475 breast carcinoma cells; assay: Cancer cell proliferation assay, single agent (cell viability); assay type: cell-based; settings: Homo sapiens, DU-4475; Table 4; Rb negative; treatment 144 Hr with medium change at 72 Hr; Cell Titer-Glo or resazurin
Summary of the method: as §1

T1 sequence (P06493 whole entry): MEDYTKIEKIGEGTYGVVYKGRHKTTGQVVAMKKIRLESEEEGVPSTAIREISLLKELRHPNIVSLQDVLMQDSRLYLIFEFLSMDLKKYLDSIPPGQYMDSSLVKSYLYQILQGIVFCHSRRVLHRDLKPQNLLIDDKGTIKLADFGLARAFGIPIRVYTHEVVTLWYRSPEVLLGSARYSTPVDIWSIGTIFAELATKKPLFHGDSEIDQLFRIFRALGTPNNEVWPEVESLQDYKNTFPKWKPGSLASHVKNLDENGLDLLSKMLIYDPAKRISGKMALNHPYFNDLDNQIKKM
T1 sequence (P14635 whole entry partner): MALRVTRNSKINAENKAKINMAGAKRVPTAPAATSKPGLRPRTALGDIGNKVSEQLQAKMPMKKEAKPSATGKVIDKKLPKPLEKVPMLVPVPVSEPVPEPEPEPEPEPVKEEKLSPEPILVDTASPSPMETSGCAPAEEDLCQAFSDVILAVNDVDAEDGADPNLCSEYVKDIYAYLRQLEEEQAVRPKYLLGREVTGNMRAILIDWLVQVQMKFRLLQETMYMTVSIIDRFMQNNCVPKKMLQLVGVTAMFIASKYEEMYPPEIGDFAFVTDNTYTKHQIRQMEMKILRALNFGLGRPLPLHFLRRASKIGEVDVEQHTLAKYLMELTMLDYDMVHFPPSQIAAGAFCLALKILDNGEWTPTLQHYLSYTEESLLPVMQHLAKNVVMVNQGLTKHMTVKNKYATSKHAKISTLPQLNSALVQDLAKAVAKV
T2 sequence (P07333 20-972): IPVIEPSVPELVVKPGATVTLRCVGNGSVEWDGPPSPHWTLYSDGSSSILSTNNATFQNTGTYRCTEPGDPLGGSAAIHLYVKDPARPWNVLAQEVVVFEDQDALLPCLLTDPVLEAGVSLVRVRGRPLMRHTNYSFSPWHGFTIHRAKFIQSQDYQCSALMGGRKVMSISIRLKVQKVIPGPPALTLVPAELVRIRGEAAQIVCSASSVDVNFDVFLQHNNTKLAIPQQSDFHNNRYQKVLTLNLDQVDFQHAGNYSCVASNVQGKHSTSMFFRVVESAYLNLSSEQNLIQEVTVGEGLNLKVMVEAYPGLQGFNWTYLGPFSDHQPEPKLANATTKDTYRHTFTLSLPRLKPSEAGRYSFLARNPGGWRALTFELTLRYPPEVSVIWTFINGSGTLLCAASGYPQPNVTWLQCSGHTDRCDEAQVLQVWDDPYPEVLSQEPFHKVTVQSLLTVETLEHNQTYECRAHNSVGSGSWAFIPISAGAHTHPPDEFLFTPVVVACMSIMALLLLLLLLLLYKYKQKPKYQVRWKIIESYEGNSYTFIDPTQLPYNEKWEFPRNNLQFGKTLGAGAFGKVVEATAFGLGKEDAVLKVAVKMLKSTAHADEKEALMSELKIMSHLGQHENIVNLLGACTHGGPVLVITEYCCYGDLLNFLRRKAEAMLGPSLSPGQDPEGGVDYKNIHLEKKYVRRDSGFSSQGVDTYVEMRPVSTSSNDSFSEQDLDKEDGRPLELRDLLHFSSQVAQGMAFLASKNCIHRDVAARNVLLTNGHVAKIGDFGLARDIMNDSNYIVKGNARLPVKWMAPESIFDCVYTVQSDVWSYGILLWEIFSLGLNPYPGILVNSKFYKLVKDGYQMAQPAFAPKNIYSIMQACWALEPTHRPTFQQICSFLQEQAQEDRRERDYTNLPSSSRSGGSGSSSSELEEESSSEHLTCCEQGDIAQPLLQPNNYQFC
T3 sequence (O00329 whole entry): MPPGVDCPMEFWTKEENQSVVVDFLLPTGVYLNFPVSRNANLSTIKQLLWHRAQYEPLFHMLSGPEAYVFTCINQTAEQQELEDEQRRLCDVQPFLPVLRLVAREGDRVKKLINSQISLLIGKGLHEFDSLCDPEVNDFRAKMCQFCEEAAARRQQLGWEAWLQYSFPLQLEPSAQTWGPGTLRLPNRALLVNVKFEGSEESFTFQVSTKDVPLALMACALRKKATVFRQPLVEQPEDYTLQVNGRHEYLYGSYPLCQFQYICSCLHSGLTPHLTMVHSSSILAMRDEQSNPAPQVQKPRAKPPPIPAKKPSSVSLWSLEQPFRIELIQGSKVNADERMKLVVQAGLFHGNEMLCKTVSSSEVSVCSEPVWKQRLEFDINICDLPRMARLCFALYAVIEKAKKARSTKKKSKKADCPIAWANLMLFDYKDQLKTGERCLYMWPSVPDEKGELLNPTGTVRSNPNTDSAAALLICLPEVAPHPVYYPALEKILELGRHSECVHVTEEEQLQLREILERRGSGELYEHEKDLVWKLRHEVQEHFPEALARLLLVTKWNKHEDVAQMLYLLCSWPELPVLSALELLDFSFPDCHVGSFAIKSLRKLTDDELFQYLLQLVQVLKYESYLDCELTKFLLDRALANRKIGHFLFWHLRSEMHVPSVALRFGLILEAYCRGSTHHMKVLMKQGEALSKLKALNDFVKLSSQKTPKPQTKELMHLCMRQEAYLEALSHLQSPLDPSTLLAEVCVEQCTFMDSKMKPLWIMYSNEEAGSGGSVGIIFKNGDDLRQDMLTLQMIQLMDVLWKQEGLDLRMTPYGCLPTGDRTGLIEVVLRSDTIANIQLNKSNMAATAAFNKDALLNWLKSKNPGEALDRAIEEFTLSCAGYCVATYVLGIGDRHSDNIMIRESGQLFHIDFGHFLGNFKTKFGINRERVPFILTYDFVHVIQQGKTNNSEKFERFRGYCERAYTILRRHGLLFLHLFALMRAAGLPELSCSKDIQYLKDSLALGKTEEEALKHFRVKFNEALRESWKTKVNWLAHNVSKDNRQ
T3 sequence (P27986 whole entry partner): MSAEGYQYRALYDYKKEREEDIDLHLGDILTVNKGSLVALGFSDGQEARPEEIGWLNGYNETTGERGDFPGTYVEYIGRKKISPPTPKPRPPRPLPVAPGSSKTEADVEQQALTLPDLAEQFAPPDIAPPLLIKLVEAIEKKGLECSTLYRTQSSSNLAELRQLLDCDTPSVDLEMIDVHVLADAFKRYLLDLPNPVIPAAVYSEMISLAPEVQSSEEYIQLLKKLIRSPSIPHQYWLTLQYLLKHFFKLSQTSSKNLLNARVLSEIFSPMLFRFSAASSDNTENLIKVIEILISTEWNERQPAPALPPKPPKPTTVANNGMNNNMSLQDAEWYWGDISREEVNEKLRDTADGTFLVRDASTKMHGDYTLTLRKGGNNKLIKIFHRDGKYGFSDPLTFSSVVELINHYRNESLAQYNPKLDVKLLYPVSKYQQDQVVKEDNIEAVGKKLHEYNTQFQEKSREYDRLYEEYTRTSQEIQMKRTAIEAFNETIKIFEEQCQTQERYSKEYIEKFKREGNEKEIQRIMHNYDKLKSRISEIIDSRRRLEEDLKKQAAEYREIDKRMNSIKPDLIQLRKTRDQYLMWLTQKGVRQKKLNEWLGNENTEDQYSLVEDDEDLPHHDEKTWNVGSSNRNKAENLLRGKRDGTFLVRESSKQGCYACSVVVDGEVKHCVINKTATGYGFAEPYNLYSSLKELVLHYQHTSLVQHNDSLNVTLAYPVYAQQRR
T6 sequence (P11802 whole entry): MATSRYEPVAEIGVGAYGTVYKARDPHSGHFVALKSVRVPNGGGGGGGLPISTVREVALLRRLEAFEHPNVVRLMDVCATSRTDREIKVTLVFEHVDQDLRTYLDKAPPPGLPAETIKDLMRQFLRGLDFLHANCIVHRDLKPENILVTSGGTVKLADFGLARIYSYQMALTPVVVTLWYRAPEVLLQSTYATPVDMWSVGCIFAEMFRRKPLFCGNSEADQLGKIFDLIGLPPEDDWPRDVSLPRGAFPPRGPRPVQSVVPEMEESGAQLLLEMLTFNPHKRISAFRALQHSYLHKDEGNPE
T6 sequence (P24385 whole entry partner): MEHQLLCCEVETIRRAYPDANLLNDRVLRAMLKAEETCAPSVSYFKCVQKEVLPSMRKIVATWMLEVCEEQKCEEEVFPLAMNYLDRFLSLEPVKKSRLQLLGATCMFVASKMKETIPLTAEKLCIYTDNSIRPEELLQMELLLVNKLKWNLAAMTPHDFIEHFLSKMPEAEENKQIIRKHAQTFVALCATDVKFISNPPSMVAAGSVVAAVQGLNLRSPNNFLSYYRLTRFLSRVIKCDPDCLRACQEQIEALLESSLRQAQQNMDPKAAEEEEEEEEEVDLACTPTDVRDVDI
T5 sequence (Q00534 whole entry): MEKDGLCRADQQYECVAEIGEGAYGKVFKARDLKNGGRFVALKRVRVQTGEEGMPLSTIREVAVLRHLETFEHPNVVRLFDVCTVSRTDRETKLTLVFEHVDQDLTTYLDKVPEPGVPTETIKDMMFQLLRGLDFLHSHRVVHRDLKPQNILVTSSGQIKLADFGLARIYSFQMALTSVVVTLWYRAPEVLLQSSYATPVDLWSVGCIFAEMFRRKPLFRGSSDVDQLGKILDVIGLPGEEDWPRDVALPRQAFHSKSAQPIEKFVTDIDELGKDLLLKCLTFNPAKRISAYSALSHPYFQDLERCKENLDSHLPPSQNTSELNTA
T5 sequence (P24385 whole entry partner): as the sequence (P24385 whole entry partner) above

| Structure (SMILES) | IC50 (CDK1 (cyclin B); read-out: CDK1/B IC50) [nM] | IC50 (FMS kinase) [nM] | IC50 (PI3Kδ kinase) [nM] | IC50 [1] [nM] | IC50 (CDK2 (cyclin A)) [nM] | IC50 (CDK6) [nM] | IC50 (CDK4) [nM] | IC50 [2] [nM] | IC50 (CDK1 (cyclin B)) [nM] |
| --- | --- | --- | --- | --- | --- | --- | --- | --- | --- |
| N#Cc1cc2cnc(Nc3ccc4c(c3)CCNC4)nc2n(C2COCC2O)c1=O (stereo not shown) [Compound No. 101, 8-(4-hydroxytetrahydrofuran-3-yl)-7-oxo-2-((1,2,3,4-tetrahydroisoquinolin-6-yl)amino)-7,8-dihydropyrido[2,3-d]pyrimidine-6-carbonitrile] | > 5000 | 55 | 7770 | > 30000 | 1740 | > 200 | > 200 | > 30000 | – |
| N#Cc1cc2cnc(Nc3ccc4c(c3)CCNC4)nc2n(C2CCCC2O)c1=O (stereo not shown) [Compound No. 346, 8-(2-hydroxycyclopentyl)-7-oxo-2-((1,2,3,4-tetrahydroisoquinolin-6-yl)amino)-7,8-dihydropyrido[2,3-d]pyrimidine-6-carbonitrile] | > 5000 | 18 | 10200 | > 30000 | 177 | 57 | > 200 | 10100 | – |
| N#Cc1cc2cnc(NC3CCN(S(=O)(=O)C4CC4)CC3)nc2n(C2CCCC2)c1=O [Compound No. 356, 8-cyclopentyl-2-((1-(cyclopropylsulfonyl)piperidin-4-yl)amino)-7-oxo-7,8-dihydropyrido[2,3-d]pyrimidine-6-carbonitrile] | – | 55 | 19900 | 175 | 5.5 | 4.5 | 2 | 1140 | 55 |
| CCS(=O)(=O)N1CCC(Nc2ncc3cc(C#N)c(=O)n(C4CCCC4)c3n2)CC1 [Compound No. 357, 8-cyclopentyl-2-((1-(ethylsulfonyl)piperidin-4-yl)amino)-7-oxo-7,8-dihydropyrido[2,3-d]pyrimidine-6-carbonitrile] | – | 490 | > 25300 | 190 | 11 | 5.8 | 2.7 | 1300 | 230 |
| N#Cc1cc2cnc(NC3CCN(S(=O)(=O)CC(F)(F)F)CC3)nc2n(C2CCCC2)c1=O [Compound No. 358, 8-cyclopentyl-7-oxo-2-((1-((2,2,2-trifluoroethyl)sulfonyl)piperidin-4-yl)amino)-7,8-dihydropyrido[2,3-d]pyrimidine-6-carbonitrile] | – | 1130 | > 44000 | 2800 | 119 | 6.6 | 4.4 | 12800 | 1380 |
| CS(=O)(=O)N1CCC[C@@H](Nc2ncc3cc(C#N)c(=O)n(C4CCCC4)c3n2)C1 [Compound No. 365, (R)-8-cyclopentyl-2-((1-(methylsulfonyl)piperidin-3-yl)amino)-7-oxo-7,8-dihydropyrido[2,3-d]pyrimidine-6-carbonitrile] | > 5000 | 311 | 1710 | 1260 | 1240 | > 200 | 167 | 5630 | – |
| CN(C)S(=O)(=O)N1CCC(Nc2ncc3cc(C#N)c(=O)n(C4CCCC4)c3n2)CC1 [Compound No. 366, 4-((6-cyano-8-cyclopentyl-7-oxo-7,8-dihydropyrido[2,3-d]pyrimidin-2-yl)amino)-N,N-dimethylpiperidine-1-sulfonamide] | – | 925 | > 48200 | 320 | 151 | 4.5 | 22 | 2410 | 2930 |
| CS(=O)(=O)N1CCC(Nc2ncc3cc(C#N)c(=O)n(C4CCC4)c3n2)CC1 [Compound No. 368, 8-cyclobutyl-2-((1-(methylsulfonyl)piperidin-4-yl)amino)-7-oxo-7,8-dihydropyrido [2,3-d] pyrimidine-6-carbonitrile] | – | – | 1980 | 405 | 28 | 3.4 | 34 | 1390 | 331 |

Stronger by IC50 (PI3Kδ kinase), values ahead:

| IC50 (CDK1 (cyclin B); read-out: CDK1/B IC50) [nM] | IC50 (FMS kinase) [nM] | IC50 (PI3Kδ kinase) [nM] | IC50 [1] [nM] | IC50 (CDK2 (cyclin A)) [nM] | IC50 (CDK6) [nM] | IC50 (CDK4) [nM] | IC50 [2] [nM] | IC50 (CDK1 (cyclin B)) [nM] | Structure (SMILES) |
| --- | --- | --- | --- | --- | --- | --- | --- | --- | --- |
| > 4650 | < 1 | 163 | 1160 | 873 | 2 | 8 | – | – | N#Cc1cc2cnc(Nc3ccc4c(c3)C(=O)NCC4)nc2n(C2CCCC2)c1=O [Compound No. 6, 8-cyclopentyl-7-oxo-2-((1-oxo-1,2,3,4-tetrahydroisoquinolin-7-yl)amino)-7,8-dihydropyrido[2,3-d]pyrimidine-6-carbonitrile] |
| 488 | 3 | 945 | 945 | 140 | 6 | 14 | – | – | CN(C)C1CCc2ccc(Nc3ncc4cc(C#N)c(=O)n(C5CCCC5)c4n3)cc2C1 (stereo not shown) [Compound No. 48, 8-cyclopentyl-2-((7-(dimethylamino)-5,6,7,8-tetrahydronaphthalen-2-yl)amino)-7-oxo-7,8-dihydropyrido[2,3-d]pyrimidine-6-carbonitrile] |
| > 5000 | 6.5 | 770 | 1280 | > 3120 | > 200 | > 200 | 5720 | – | CCOCCCn1c(=O)c(C#N)cc2cnc(Nc3ccc4c(c3)CCNC4)nc21 [Compound No. 343, 8-(3-ethoxypropyl)-7-oxo-2-((1,2,3,4-tetrahydroisoquinolin-6-yl)amino)-7,8-dihydropyrido[2,3-d]pyrimidine-6-carbonitrile] |
| > 4670 | 3.5 | 1630 | 435 | 201 | 64 | 77.5 | 960 | – | N#Cc1cc2cnc(Nc3ccc4c(c3)CCNC4)nc2n(C2CCC(F)(F)C2)c1=O (stereo not shown) [Compound No. 344, 8-(3,3-difluorocyclopentyl)-7-oxo-2-((1,2,3,4-tetrahydroisoquinolin-6-yl)amino)-7,8-dihydropyrido[2,3-d]pyrimidine-6-carbonitrile] |
| > 5000 | 64 | 825 | 3330 | > 5000 | > 200 | > 200 | 5660 | – | CS(=O)(=O)N1CCC[C@H](Nc2ncc3cc(C#N)c(=O)n(C4CCCC4)c3n2)C1 [Compound No. 364, (S)-8-cyclopentyl-2-((1-(methylsulfonyl)piperidin-3-yl)amino)-7-oxo-7,8-dihydropyrido[2,3-d]pyrimidine-6-carbonitrile] |
| – | 102 | 539 | 640 | 308 | 7.4 | 55 | 5160 | 2920 | CS(=O)(=O)N1CCC(Nc2ncc3cc(C#N)c(=O)n(C4CCCCC4)c3n2)CC1 [Compound No. 367, 8-cyclohexyl-2-((1-(methylsulfonyl)piperidin-4-yl)amino)-7-oxo-7,8-dihydropyrido [2,3-d] pyrimidine-6-carbonitrile] |
